Measured values taken from ChEMBL document CHEMBL1201862, “PubChem BioAssay data set” (2004).
Activity calls are given as the source filed them.

Tests used:
[1] = biological target: T1, Replicative DNA helicase DnaB (Mycobacterium tuberculosis, UniProt P9WMR3); experiment: DnaB intein splicing inhibitors, dose response, biochemical, cell-free fluorescence (AID 449749); assay type: functional
T1 sequence (P9WMR3 whole entry): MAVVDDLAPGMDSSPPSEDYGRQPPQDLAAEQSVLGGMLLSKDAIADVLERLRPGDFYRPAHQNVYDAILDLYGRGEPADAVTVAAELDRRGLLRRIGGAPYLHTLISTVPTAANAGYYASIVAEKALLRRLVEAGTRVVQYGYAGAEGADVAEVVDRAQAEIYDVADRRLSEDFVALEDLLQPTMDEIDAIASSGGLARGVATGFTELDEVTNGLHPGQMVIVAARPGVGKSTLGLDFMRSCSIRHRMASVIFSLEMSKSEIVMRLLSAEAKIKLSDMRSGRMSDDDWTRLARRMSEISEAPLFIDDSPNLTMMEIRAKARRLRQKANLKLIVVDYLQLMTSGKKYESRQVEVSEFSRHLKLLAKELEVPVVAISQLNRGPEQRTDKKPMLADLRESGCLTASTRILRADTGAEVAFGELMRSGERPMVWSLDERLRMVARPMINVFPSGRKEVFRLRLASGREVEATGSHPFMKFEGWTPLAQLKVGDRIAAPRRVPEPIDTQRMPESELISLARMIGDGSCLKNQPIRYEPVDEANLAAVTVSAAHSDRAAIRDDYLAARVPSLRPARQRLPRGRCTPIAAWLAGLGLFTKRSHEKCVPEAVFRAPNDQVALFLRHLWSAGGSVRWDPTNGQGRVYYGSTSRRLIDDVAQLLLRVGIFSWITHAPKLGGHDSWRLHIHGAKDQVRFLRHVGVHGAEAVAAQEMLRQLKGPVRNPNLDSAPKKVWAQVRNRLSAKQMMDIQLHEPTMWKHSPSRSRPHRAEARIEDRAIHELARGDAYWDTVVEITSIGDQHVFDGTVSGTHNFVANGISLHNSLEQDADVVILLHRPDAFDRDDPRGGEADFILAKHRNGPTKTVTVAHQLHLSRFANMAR

Protein RecA = biological target: T2, Protein RecA (Mycobacterium tuberculosis, UniProt P9WHJ3); experiment: Fluorescence Cell-Free Homogeneous Dose Retest to Identify Inhibitors of RecA-Intein Splicing Activity. [Related pubchem assays (depositor defined):AID2097, AID2223, AID489010, AID492950]; assay type: functional
T2 sequence (P9WHJ3 whole entry): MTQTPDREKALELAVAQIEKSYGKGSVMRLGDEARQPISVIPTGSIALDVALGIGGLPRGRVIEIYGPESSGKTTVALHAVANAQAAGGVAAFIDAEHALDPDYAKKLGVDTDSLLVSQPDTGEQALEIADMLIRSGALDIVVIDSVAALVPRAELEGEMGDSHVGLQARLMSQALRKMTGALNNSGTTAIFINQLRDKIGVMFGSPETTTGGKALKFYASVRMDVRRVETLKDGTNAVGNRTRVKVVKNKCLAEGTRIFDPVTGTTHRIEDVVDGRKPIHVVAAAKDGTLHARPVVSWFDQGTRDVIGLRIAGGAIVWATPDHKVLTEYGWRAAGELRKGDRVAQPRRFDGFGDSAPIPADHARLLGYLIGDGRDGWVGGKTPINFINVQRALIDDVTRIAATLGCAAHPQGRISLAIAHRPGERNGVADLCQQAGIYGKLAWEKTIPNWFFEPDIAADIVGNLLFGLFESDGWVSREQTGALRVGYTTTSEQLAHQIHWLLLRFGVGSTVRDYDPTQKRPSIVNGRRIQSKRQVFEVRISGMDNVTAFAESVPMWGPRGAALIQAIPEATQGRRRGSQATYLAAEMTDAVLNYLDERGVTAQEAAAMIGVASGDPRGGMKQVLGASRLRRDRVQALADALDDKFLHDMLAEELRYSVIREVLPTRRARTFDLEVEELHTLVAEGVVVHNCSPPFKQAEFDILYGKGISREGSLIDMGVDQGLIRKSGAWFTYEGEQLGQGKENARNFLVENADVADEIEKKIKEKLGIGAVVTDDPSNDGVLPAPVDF

[2] = biological target: Delta-type opioid receptor (Homo sapiens, UniProt P41143); experiment: Counterscreen for agonists of heterodimerization of the mu 1 (OPRM1) and delta 1 (OPRD1) opioid receptors: Luminescence-based cell-based high throughput dose response assay to identify agonists of OPRD1 homodimerization. [Related pubchem assays (depositor defined):AID504326, AID504355, AID504692, AID504904, AID504905]; assay type: functional
Mu-type opioid receptor = Mu-type opioid receptor (Homo sapiens, UniProt P35372); experiment: Counterscreen for agonists of heterodimerization of the mu 1 (OPRM1) and delta 1 (OPRD1) opioid receptors: Luminescence-based cell-based high throughput dose response assay to identify agonists of OPRM1 homodimerization.; assay type: functional;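 further: U2OS cells expressing OPRM1 and beta-arrestin as split beta-galactosidase partners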
[3] = biological target: Opioid receptors; mu & delta (Homo sapiens, UniProt P41143+P35372); experiment: agonists of MOR-DOR heterodimerization, dose response, cell-based, luminescence (AID 588407); assay type: functional
[4] = biological target: 5-hydroxytryptamine receptor 5A (Homo sapiens, UniProt P47898); experiment: Counterscreen for agonists of OPRM1-OPRD1 heterodimerization: luminescence-based cell-based high throughput dose response assay to identify agonists of 5-hydroxytryptamine (serotonin) 5A receptor (HTR5A). [Related pubchem assays (depositor defined):AID504326, AID504355, AID504692, AID504904, AID504905]; assay type: functional
INS1 = experiment: beta cell apoptosis inhibitors, cytokine rescue, dose response, luminescence, retest (AID 449756); assay type: functional, cell-based; conditions: Rattus norvegicus;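 further: cell death triggered by IL-1 beta plus TNF-alpha plus IFN-gamma mixture; protective hits raise ATP signal compared with cytokine alone wells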
HEK293 [5] = experiment: HEK cell cytotoxicity by LDH release, dose response, cytotoxicity control for IDE activator project, fluorescence, HEK cells (AID 588440); assay type: functional, cell-based; conditions: Homo sapiens;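 further: cytotoxicity by LDH release measuring loss of membrane integrity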
HEK293 [6] = experiment: optical interference in Abeta FP readout, dose response, artefact control for IDE activator project, biochemical, fluorescence polarization (AID 588442); assay type: functional, cell-based; conditions: Homo sapiens
HeLa = experiment: HeLa cell cytotoxicity, dose response, cytotoxicity control for MITF activator project, CellTiter-Glo luminescence, cherry-pick samples (AID 540259); assay type: functional, cell-based; conditions: Homo sapiens
Keap1/Nrf2 = Keap1/Nrf2 (Homo sapiens, UniProt Q14145); experiment: Keap1-Nrf2 protein-protein interaction inhibitors, dose response, biochemical, fluorescence polarization, cherry-picked samples (AID 588683)
[7] = biological target: T3, Heat shock factor protein 1 (Mus musculus, UniProt P38532); experiment: inhibition of MG132-induced HSE-luciferase signal, confirmation, cell-based, NIH3T3, luminescence, dose retest (AID 2382); assay type: functional;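 further: NIH3T3 fibroblasts with HSF1-driven luciferase reporter stressed by proteasome inhibitor MG132; luminescence from HSF1-driven luciferase expression after 8 hours of MG132 stress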
T3 sequence (P38532 whole entry): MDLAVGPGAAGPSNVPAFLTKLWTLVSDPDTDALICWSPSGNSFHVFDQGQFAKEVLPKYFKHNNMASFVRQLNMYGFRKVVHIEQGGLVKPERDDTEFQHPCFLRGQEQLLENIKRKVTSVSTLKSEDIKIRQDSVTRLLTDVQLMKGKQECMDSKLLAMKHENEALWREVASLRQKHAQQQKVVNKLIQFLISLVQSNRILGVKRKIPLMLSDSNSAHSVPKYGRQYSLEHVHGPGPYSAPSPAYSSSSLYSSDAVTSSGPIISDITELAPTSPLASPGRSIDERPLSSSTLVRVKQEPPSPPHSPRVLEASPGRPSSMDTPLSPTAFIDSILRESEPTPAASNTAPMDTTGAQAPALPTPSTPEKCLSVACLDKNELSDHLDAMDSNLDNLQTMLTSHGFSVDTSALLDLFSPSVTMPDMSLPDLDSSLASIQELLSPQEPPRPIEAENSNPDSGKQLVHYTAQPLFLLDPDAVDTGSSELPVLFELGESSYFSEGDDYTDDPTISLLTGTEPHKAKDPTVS

[8] = cytotoxicity in HEK-293T cells, dose response, cytotoxicity control for TCR NF-kB inhibitor project, luminescence, T-cell screen hits (AID 489026); assay type: functional, cell-based;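 further: cells exposed to compound about 14 hours before the viability readout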
[9] = biological target: Luciferin 4-monooxygenase (Photuris pensylvanica, UniProt Q27757); experiment: firefly luciferase enzyme inhibitors, dose response, counter-screen for HSF-1 reporter inhibitor project, biochemical, Cell Titer Glo, luminescence, cherry-picks (AID 588847)
[10] = A549 cell cytotoxicity, dose response, cytotoxicity control, plate reader, cherry-pick, antagonist series (AID 743412); assay type: functional, cell-based
[11] = LGR2 antagonists, dose response, cell-based, HEK293, CRE-luciferase reporter, cherry pick, set 2 (AID 743343); assay type: functional;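 further: transfected cells were stimulated with diluted bursicon conditioned medium after compound addition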
[12] = MC4R antagonists, dose response, counter-screen for LGR2 antagonist project, cell-based, plate reader, cherry pick (AID 743444); assay type: functional;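 further: transfected HEK 293 cells stimulated with alpha-MSH peptide; potency of inhibitors of the alpha-MSH evoked signal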
[13] = HEK293 cell cytotoxicity, dose response, cytotoxicity control, plate reader, cherry-picked samples (AID 743446); assay type: functional, cell-based
Large T antigen = Large T antigen (Simian virus 40, UniProt P03070); assay type: functional, Betapolyomavirus macacae;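 further: Confirmatory-stage PubChem screen for compounds that inhibit SV40 T antigen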
[14] = biological target: Intestinal-type alkaline phosphatase (Mus musculus, UniProt P24822); experiment: PubChem AID 488785; assay type: functional
[15] = biological target: T4, Alkaline phosphatase, tissue-nonspecific isozyme (Homo sapiens, UniProt P05186); experiment: TNAP enzyme inhibition by screening hits, dose response, selectivity assay for mouse IAP inhibitor project, biochemical, human TNAP, uHTS hits (AID 488906); assay type: functional
T4 sequence (P05186 whole entry): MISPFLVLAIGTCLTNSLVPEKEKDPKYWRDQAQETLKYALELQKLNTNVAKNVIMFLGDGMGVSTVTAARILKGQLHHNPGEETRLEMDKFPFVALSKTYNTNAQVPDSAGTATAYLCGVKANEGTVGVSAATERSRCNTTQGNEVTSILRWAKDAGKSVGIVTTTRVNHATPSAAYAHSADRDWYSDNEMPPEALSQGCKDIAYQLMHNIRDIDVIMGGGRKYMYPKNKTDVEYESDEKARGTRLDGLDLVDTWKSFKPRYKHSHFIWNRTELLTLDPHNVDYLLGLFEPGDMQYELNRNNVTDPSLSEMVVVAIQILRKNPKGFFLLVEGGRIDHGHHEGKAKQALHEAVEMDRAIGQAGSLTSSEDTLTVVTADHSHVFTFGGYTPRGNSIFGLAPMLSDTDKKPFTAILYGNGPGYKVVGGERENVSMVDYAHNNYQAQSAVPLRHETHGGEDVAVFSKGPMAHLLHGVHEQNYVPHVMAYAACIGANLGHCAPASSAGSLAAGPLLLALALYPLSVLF

[16] = biological target: Intestinal-type alkaline phosphatase (Homo sapiens, UniProt P09923); experiment: inhibition of human intestinal alkaline phosphatase – biochemical, dose response (AID 488876); assay type: functional
Tumor necrosis factor = Tumor necrosis factor (Homo sapiens, UniProt P01375); experiment: TNFa-triggered NF-kB activation inhibitors, SAR follow-up, cell-based, revised (AID 2337); assay type: functional
[17] = biological target: Nucleotide-binding oligomerization domain-containing protein 1 (Homo sapiens, UniProt Q9Y239); experiment: NOD1 signaling inhibitors, SAR follow-up, revised (AID 2333); assay type: functional
HEK293 [18] = experiment: cells; conditions: Homo sapiens
[19] = NIH-3T3 fibroblast cytotoxicity, dose response, cytotoxicity control, cell-based, fluorescence, Alamar Blue, secondary assay (AID 2327); assay type: functional;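 further: NIH-3T3 mouse fibroblasts cultured with fluconazole at 8 µg/mL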
[20] = C. albicans growth with fluconazole, confirmation, fluorescence, retest (AID 2467); assay type: functional, cell-based
[21] = biological target: Serine/threonine-protein phosphatase (Candida dubliniensis (strain CD36 / CBS 7987 / NCPF 3949 / NRRLY-17841) (Yeast), UniProt B9W6M3); experiment: calcineurin pathway inhibitors in yeast reporter, dose response, S. cerevisiae, CDRE-lacZ, luminescence, secondary (AID 2388); assay type: functional, cell-based;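 further: yeast reporter cells carrying a calcineurin-responsive lacZ construct stimulated with calcium chloride; luminescent beta-galactosidase reporter signal in whole cells rather than isolated phosphatase activity; potency for inhibition where a drop in reporter signal means calcineurin blockade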
[22] = biological target: T3, Heat shock factor protein 1; experiment: HSF1 potentiators in luciferase reporter cells, confirmation, cell-based, NIH3T3, luminescence, dose retest (AID 435004); assay type: functional;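 further: stress induced by proteasome inhibitor MG132 added 30 min after compound; luciferase reporter driven by HSF1 response element in NIH3T3 cells; actives raise luminescence as potentiators of the MG132 stress response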
[23] = biological target: ATP-dependent molecular chaperone HSP82 (Candida albicans (strain WO-1) (Yeast), UniProt C4YTQ8); experiment: loss of DOC-induced GRE-beta-galactosidase reporter signal, dose response, Hsp90 inhibitor project, S. cerevisiae, luminescence (AID 2400); assay type: functional, cell-based;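 further: beta-galactosidase luminescence from glucocorticoid response element reporter as proxy for Hsp90 function; inhibitor potency where signal loss means Hsp90 inhibition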

SMILES: c1ccc(C2[C@H]3CN(Cc4cccnc4)[C@H](c4ccccc4)C34CC2(c2cccnc2)C4)cc1 (some centres undefined)
- AC50 [1]: 3.72 µM (active)
- EC50 (Protein RecA): 16.7 µM (active)
- EC50 [2]: 3.21 µM (active)
- EC50 (Mu-type opioid receptor): > 92.5 µM (inactive)
- EC50 [3]: > 3.424 µM
- EC50 [4]: > 92.5 µM (inactive)

SMILES: Clc1ccc(C(c2ccc(Cl)cc2)[n+]2ccn(CC(OCc3ccc(Cl)cc3Cl)c3ccc(Cl)cc3Cl)c2)cc1.[Cl-] (centres undefined) [CALMIDAZOLIUM CHLORIDE]
- EC50 [3]: > 3.426 µM
- AC50 (INS1): 2.56 µM (active)
- IC50 (HEK293 [5]): 2.01 µM (active)
- EC50 (HEK293 [6]): > 54.7 µM (inactive)

SMILES: COc1ccc(COc2ccc3ccc(=O)oc3c2)cc1
- AC50 (HeLa): 93.8 µM (active)

SMILES: Cc1cc[n+](-c2[n-]c(=O)sc2C=NNC(=S)Nc2ccccc2)cc1C
- AC50 (Keap1/Nrf2): > 52 µM (inactive)

SMILES: CC1CCCN(c2ncnc3c2cnn3-c2ccc(Cl)cc2)C1 (centres undefined)
- EC50 [7]: < 0.16 µM (active)
- IC50 [8]: > 80 µM (inactive)
- AC50 [9]: 1.34 µM (active)
- AC50 [10]: > 52 µM (inactive)
- AC50 [11]: < 0.068 µM (active)
- AC50 [12]: 0.155 µM (active)
- AC50 [13]: > 52 µM (inactive)

SMILES: Oc1cc(O)c2c(c1)O[C@H](c1ccc(O)c(O)c1)[C@@H](O)C2
- IC50 (Large T antigen): 11.4 µM (active)
- IC50 [14]: 15.5 µM (active)
- IC50 [15]: 37.1 µM (active)
- IC50 [16]: > 100 µM (inactive)
- AC50 [1]: 22.2 µM (active)
- EC50 (Protein RecA): 4.11 µM (active)

SMILES: COc1ccc(N2CCN(S(=O)(=O)c3ccc4c(c3)CC(C)N4C(=O)C3CC3)CC2)cc1 (centres undefined)
- IC50 (Tumor necrosis factor): 3.85 µM (active)
- IC50 [17]: 0.506 µM (active)
- IC50 (HEK293 [18]): > 20 µM (inactive)

SMILES: CCc1ccc(C(=O)NC2CCCCC2)s1
- AC50 (HeLa): 87.6 µM (active)

SMILES: CCC(C)n1cnc2c(c1=O)c1nc3ccccc3nc1n2Cc1ccc(OC)cc1 (centres undefined)
- EC50 [19]: 47.7 µM (active)
- EC50 [20]: 0.356 µM (active)
- EC50 [21]: > 180 µM (inactive)
- EC50 [22]: > 260 µM (inactive)
- EC50 [23]: 14.7 µM (active)
